Source: ChEMBL document CHEMBL1145667, “Carboxyatractyloside: A Compound from Xanthium strumarium and Atractylis gummifera with Plant Growth Inhibiting Properties. The Probable "Inhibitor A"” (1983)
Calls of active or inactive are those of the source. The rule behind the calls is not given here.

Experiments:
[1] = tested on: Triticum aestivum; assay: Growth inhibition of etiolated wheat coleoptiles at 100 uM after 24 hrs at 22 degC in dark relative to control; assay type: functional; conditions: read-out: GI
[2] = tested on: Triticum aestivum; assay: Growth inhibition of etiolated wheat coleoptiles at 10 uM after 24 hrs at 22 degC in dark relative to control; assay type: functional; conditions: read-out: GI
[3] = tested on: Triticum aestivum; assay: Growth inhibition of etiolated wheat coleoptiles at 0.60 to 0.90 retention factor by paper chromatograms relative to control; assay type: functional
[4] = tested on: Triticum aestivum; assay: Growth inhibition of etiolated wheat coleoptiles at 1000 uM after 24 hrs at 22 degC in dark relative to control; assay type: functional; conditions: read-out: GI
[5] = tested on: Nicotiana tabacum; assay: Growth inhibition of green house tobacco seedlings assessed as cupping of leaves at 10000 uM within 24 hrs; assay type: functional, organism-based
[6] = tested on: Nicotiana tabacum; assay: Growth inhibition of green house tobacco seedlings assessed as cupping of leaves resembling tobacco at 100 uM at 2 to 7 degC after 24 hrs; assay type: functional, organism-based
[7] = tested on: Nicotiana tabacum; assay: Growth inhibition of green house tobacco seedlings assessed as cupping of the leaves at 10000 uM at 18.5 degC after 24 hrs; assay type: functional, organism-based
[8] = tested on: Nicotiana tabacum; assay: Growth inhibition of green house tobacco seedlings assessed as cupping of leaves resembling tobacco at 10000 uM at 2 to 7 degC after 24 hrs; assay type: functional, organism-based
[9] = tested on: Nicotiana tabacum; assay: Growth inhibition of green house tobacco seedlings assessed as cupping of leaves resembling tobacco at 1000 uM at 2 to 7 degC after 24 hrs; assay type: functional, organism-based
[10] = tested on: Zea mays; assay: Growth inhibition of green house corn seedling assessed as chlorosis at 1000 uM after 72 hrs; assay type: functional, organism-based
[11] = tested on: Zea mays; assay: Growth inhibition of green house corn seedling assessed as chlorosis at 100 uM after 72 hrs; assay type: functional, organism-based
[12] = tested on: Triticum aestivum; assay: Growth inhibition of etiolated wheat coleoptiles at 0.10 to 0.20 retention factor by paper chromatograms relative to control; assay type: functional; set-up: scale not given: the % may be the effect or the level left
[13] = tested on: Zea mays; assay: Growth inhibition of green house corn seedling assessed as necrotic lesions at 10000 uM after 72 hrs; assay type: functional, organism-based
[14] = tested on: Zea mays; assay: Growth inhibition of green house corn seedling assessed as whorls and chlorosis of the leaf margins at 1000 uM relative to control; assay type: functional; conditions: read-out: GI
[15] = tested on: Zea mays; assay: Growth inhibition of green house corn seedling assessed as stunting at 1000 uM after 72 hrs; assay type: functional, organism-based
[16] = tested on: Nicotiana tabacum; assay: Growth inhibition of green house tobacco seedlings assessed as cupping of leaves at 1000 uM within 24 hrs; assay type: functional, organism-based
[17] = tested on: Zea mays; assay: Growth inhibition of green house corn seedling assessed as stunting at 100 uM after 72 hrs; assay type: functional, organism-based
[18] = tested on: Nicotiana tabacum; assay: Growth inhibition of green house tobacco seedlings assessed as cupping of the leaves at 100 uM at 18.5 degC after 24 hrs; assay type: functional, organism-based
[19] = tested on: Zea mays; assay: Growth inhibition of green house corn seedling at 1000 uM after 2 weeks relative to control; assay type: functional; conditions: 336 h, read-out: GI
[20] = tested on: Zea mays; assay: Growth inhibition of green house corn seedling assessed as necrotic lesions at 10000 uM after 1 week relative to control; assay type: functional; conditions: 168 h, read-out: GI
[21] = tested on: Nicotiana tabacum; assay: Growth inhibition of green house tobacco seedlings assessed as cupping of the leaves at 10000 uM after 72 hrs at 18.5 degC; assay type: functional, organism-based
[22] = tested on: Nicotiana tabacum; assay: Growth inhibition of green house tobacco seedlings assessed as cupping of leaves at 100 uM within 24 hrs; assay type: functional, organism-based
[23] = tested on: Zea mays; assay: Growth inhibition of green house corn seedling assessed as stunting at 10000 uM after 1 week relative to control; assay type: functional; conditions: 168 h, read-out: GI
[24] = tested on: Nicotiana tabacum; assay: Growth inhibition of green house tobacco seedlings assessed as cupping of the leaves at 1000 uM after 72 hrs at 18.5 degC; assay type: functional, organism-based
[25] = tested on: Nicotiana tabacum; assay: Growth inhibition of green house tobacco seedlings assessed as cupping of the leaves at 100 uM after 72 hrs at 18.5 degC; assay type: functional, organism-based
[26] = tested on: Nicotiana tabacum; assay: Growth inhibition of green house tobacco seedlings assessed as cupping of the leaves at 1000 uM at 18.5 degC after 24 hrs; assay type: functional, organism-based
[27] = tested on: Triticum aestivum; assay: Growth inhibition of etiolated wheat coleoptiles at 0.20 to 0.30 retention factor by paper chromatograms relative to control; assay type: functional; set-up: scale not given: the % may be the effect or the level left
[28] = tested on: Triticum aestivum; assay: Growth inhibition of etiolated wheat coleoptiles at 0.00 to 0.10 retention factor by paper chromatograms relative to control; assay type: functional; set-up: scale not given: the % may be the effect or the level left
[29] = tested on: Zea mays; assay: Growth inhibition of green house corn seedling at 10000 uM after 2 weeks relative to control; assay type: functional; conditions: 336 h, read-out: GI

CC1=CC(=O)CC(C)(C)C1(O)/C=C/C(C)=C\C(=O)O (racemic) [ABSCISIC ACID]
inhibition of growth at 100 µM [1]: 90%
inhibition of growth at 10 µM [2]: 69%
growth inhibition (GI) [3]: 100%
inhibition of growth at 1000 µM [4]: 100%

C=C1[C@H]2CC[C@H]3[C@]4(C)C[C@H](O[C@@H]5O[C@H](CO)[C@@H](OS(=O)(=O)O)[C@H](OS(=O)(=O)O)[C@H]5OC(=O)CC(C)C)CC(C(=O)[O-])(C(=O)[O-])[C@H]4CC[C@]3(C2)[C@H]1O.[K+].[K+] [POTASSIUM CARBOXYATRACTYLOSIDE]
inhibition of growth at 100 µM [1]: 91%
Activity [5]: Active
Activity [6]: Active
Activity [7]: Active
inhibition of growth at 10 µM [2]: 48%
Activity [8]: Active
Activity [9]: Active
Activity [10]: Active
Activity [11]: Active
Activity [12]: 76.7%
Activity [13]: Active
inhibition of growth at 1000 µM [14]: 25%
Activity [15]: Active
Activity [16]: Active
Activity [17]: Active
Activity [18]: Active
inhibition of growth at 1000 µM [19]: 14%
inhibition of growth at 10000 µM [20]: 50%
Activity [21]: Active
Activity [22]: Active
inhibition of growth at 10000 µM [23]: 50%
Activity [24]: Active
Activity [25]: Active
Activity [26]: Active
inhibition of growth at 1000 µM [4]: 100%
Activity [27]: 86.4%
Activity [28]: 88.4%
inhibition of growth at 10000 µM [29]: 43%
